Assay results taken from US20220265700A1, “METHODS TO PREVENT, INHIBIT OR TREAT INTERVERTEBRAL DISC DEGENERATION” (University of Iowa Research Foundation, priority 2021, published 2022).
Where two headings read alike, the source gives them in different places.

What was measured:
JNK = assay: Immunofluorescence staining of phosphorylated JNK; assay type: cell-based, rabbit
nucleus pulposus cells [1] = assay: Mitochondrial ROS production, MitoSOX Red; assay type: cell-based, rabbit
ERK = assay: Immunofluorescence staining of phosphorylated ERK; assay type: cell-based, rabbit
p38 = assay: Immunofluorescence staining of phosphorylated p38; assay type: cell-based, rabbit
Nrf2 [2] = assay: Nrf2 staining, ex vivo organ culture of transversely cut intervertebral discs; assay type: cell-based, rabbit; details: 10 mM NAC or […] amobarbital for 24 h after cutting
NP cells = assay: TUNEL assay, ex vivo IVD puncture model; assay type: cell-based, rabbit; details: 7 days; Amo in hydrogel after disc puncture
Text: Overall study design is illustrated in FIG. 15A. A total of 36 rabbit thoracic and lumbar motion segments (T11/L2) including two vertebral bodies and one IVD were obtained from New Zealand White (NZW) rabbit cadavers (approximately 10-months old) without radiographic evidence of trauma by X-ray. Under sterile conditions, the segments were dissected by removing the posterior elements and soft tissues. The discs were punctured using a 20-gauge needle with 3 mm-depth, and the needle was held in place for 5 seconds. Discal injury was confirmed by herniated nucleus pulposus (NP) through the needle hole. After the puncture, 5 μl hydrogel (17% F-127/0.425% HA) with or without 2.5 mM Amo was injected into the NP using a 30-gauge Hamilton syringe with a stopper (Thermo Fisher Scientific, Waltham, Mass., USA). […]
Apoptotic cells in the NP were detected using a terminal deoxynucleotidyl transferase dUTP nick end labelling (TUNEL) assay (Abcam, Cambridge, Mass., USA) according to the manufacturer's instructions. […] Then, the sections were labeled with terminal transferase (TdT) enzyme for 1.5 h, detected with blocking buffer for 30 min, developed with working 3,3′-diaminobenzidine (DAB) solution for 15 min, and counterstained with methyl green for 1.5 min. After scanning images, the number of positive cells in each tissue was counted and normalized by the data from the 2-days intact group.

[3] = Amo stability in HA hydrogel according to USP guidelines; assay type: physicochemical; details: mixed with Gel-One HA hydrogel, data not shown
Text: Amo is primarily applied as a sedative-hypnotic to treat sleep disorder and as a preanesthetic agent.

nucleus pulposus cells [4] = details: for cell viability: normalized by control
Nrf2 [5] = assay: Nrf2 staining in NP cells under tBHP-induced oxidative stress; details: pre-treated with […] amobarbital 2 h, then 50 μM tBHP 1 h
nucleus pulposus cells [6] = assay: Mitochondrial membrane potential, JC-1 assay; assay type: cell-based, rabbit; details: 50 μM tBHP 1 h
rabbit NP cells = assay type: cell-based; details: exposed to 100 μM tBHP
nucleus pulposus cells [7] = details: 100 μM tBHP exposure
[8] = tested on: human nucleus pulposus cells; details: 400 μM tBHP for 6 h (Xu et al. 2019); cited from earlier work
[9] = tested on: rat nucleus pulposus cells; details: 100 μM tBHP for 24 h (2019 report); cited from earlier work
nucleus pulposus tissues = assay: DHE staining, ex vivo organ culture of transversely cut intervertebral discs; assay type: cell-based, rabbit; details: 10 mM NAC or […] amobarbital for 24 h after cutting
nucleus pulposus (NP) = assay: DHE staining of IVDs exposed to 100 μM tBHP; assay type: cell-based, rabbit; details: 100 μM tBHP 30 minutes, then 10 mM NAC 24 hours
SOD2 and Nrf2 = SOD2 and Nrf2 IHC staining of tBHP-exposed IVDs; assay type: cell-based, rabbit; details: 100 μM tBHP 30 minutes, then 10 mM NAC 24 hours
[10] = 10 mM NAC, […] amobarbital or 20 μM inhibitor, 50 μM tBHP 1 h

C[S+]([O-])c1ccc(-c2nc(-c3ccncc3)c(-c3ccc(F)cc3)[nH]2)cc1 (stereo not shown) [SB203580]
phosphorylation of JNK vs. tBHP (JNK): minimized the phosphorylation

CCC1(CCC(C)C)C(=O)NC(=O)NC1=O [amobarbital]
MitoSOX-stained cells (imaging) (nucleus pulposus cells [1]): large decrease | phosphorylation of ERK vs. tBHP (ERK): inhibited the phosphorylation | phosphorylation of JNK vs. tBHP (JNK): inhibited the phosphorylation | phosphorylation of p38 vs. tBHP (p38): inhibited the phosphorylation | Nrf2 expression in the cytosol compared with injured control group (Nrf2 [2]): ~7.8 times | Nrf2 translocation to the nucleus after injury (Nrf2 [2]): prevented | TUNEL-positive (apoptotic) NP cells vs. HG (NP cells): diminished number of cell apoptosis | Amo stability in hydrogel [3]: stability in human biologic fluids and various conditions | protective effect on cell viability (cell death) (nucleus pulposus cells [4]): significantly prohibited the cell death | Nrf2 expression in the cytosol of NP cells (Nrf2 [5]): close to control

CC(C)(C)OO [tBHP, tert-butyl hydrogen peroxide]
superoxide production (MitoSOX Red) (nucleus pulposus cells [1]; 25 μM tBHP): no superoxide production was observed | ratio of J-aggregate form to monomeric form vs. control (nucleus pulposus cells [6]): significantly reduced | phosphorylation of ERK vs. control (ERK; 50 μM tBHP 1 h): significantly phosphorylated | rate of phosphorylated JNK compared with control (JNK; 50 μM tBHP 1 h): approximately 5.9 times | rate of phosphorylated p38 compared with control (p38; 50 μM tBHP 1 h): ~9.7 times | basal oxygen consumption rate (OCR) (rabbit NP cells): increased | cell viability (nucleus pulposus cells [4]; 25 μM tBHP, 1 h): 90.8% | cell viability (nucleus pulposus cells [4]; 50 μM tBHP, 1 h): 77.1% | cell loss (viability) (nucleus pulposus cells [4]; 100-400 μM tBHP, 1 h): 70.6-72.9% | apoptotic/necrotic cells after tBHP exposure (nucleus pulposus cells [7]): became apoptotic and/or necrotic cells | viability [8]: 54.3% | cell apoptosis relative to control [9]: approximately 7 times

CC(=O)N[C@@H](CS)C(=O)O [NAC, N-acetylcysteine]
phosphorylation of ERK vs. tBHP (ERK; [10]): inhibited the phosphorylation | phosphorylation of JNK vs. tBHP (JNK; [10]): inhibited the phosphorylation | phosphorylation of p38 vs. tBHP (p38; [10]): inhibited the phosphorylation | DHE dye oxidation (ROS) in injured NP tissues (nucleus pulposus tissues): dramatically reduced dye oxidation | Nrf2 expression in the cytosol compared with injured control group (Nrf2 [2]): approximately 6.8 times | Nrf2 translocation to the nucleus after injury (Nrf2 [2]): prevented | DHE positive cells compared with non-treated control (nucleus pulposus (NP)): dramatic reduction | oxidative damage in NP cells by SOD2 and Nrf2 IHC staining (SOD2 and Nrf2): reduced oxidative damage | protective effect on cell viability (cell death) (nucleus pulposus cells [4]; 0.1-10 mM pre-treatment 2 h prior to 50 μM tBHP, until 24 h): significantly prohibited the cell death | concentration at which no cytotoxicity was exhibited (nucleus pulposus cells [4]; New Zealand White, rabbit, 2 h): lower than 10 mM

COc1cccc(-c2cc(=O)c3ccccc3o2)c1N [PD98059]
phosphorylation of ERK vs. tBHP (ERK): minimized the phosphorylation
